Experimental data reported in patent US20200283498A1, “T CELL RECEPTOR FUSIONS AND CONJUGATES AND METHODS OF USE THEREOF” (Altor Bioscience LLC, priority 2008, published 2020).

Columns and labels:
[1] = tested on: immune cells; assay type: in vivo, human
Experimental: FIG. 33A is a line graph showing serum IFN-γ levels (determined by ELISA analysis) of subjects following treatment with 0.04 mg/kg ALT-801 (MTD level). FIG. 33B is a line graph showing IFN-γ ELISPOT analysis of PBMCs for subjects treated with 0.04 mg/kg ALT-801 (MTD level). Peripheral blood mononuclear cells (PBMCs) were prepared from samples collected pre-dosing (Cycles 1 & 2) and 2 hours after the drug infusion of dose 3 and 7. Following overnight incubation in medium alone or medium containing ALT-801, p53-positive A375 tumor cells or ALT-801+A375 tumor cells, activated immune effector cells were measured using ELISPOT for IFN-γ production
Based on PK profile, the IL-2 receptors on the surface of immune cells (i.e. NK cells and T-cells) in the patient are anticipated to be fully occupied by the ALT-801 circulating in the patient's serum when a dose of 0.015 mg/kg or higher is administered. […] IFN-γ is produced by activated NK and T-cells and its induction by ALT-801 likely correlates with an increase in effector cell cytolytic activity that plays a role in the antitumor responses. […] Thus the lack of treatment-related TNF-α expression may contribute to the reduced toxicity observed with ALT-801 treatment compared with high-dose IL-2.
The effects of ALT-801 on cell-mediated immune responses were also examined in treated patients. Blood samples were collected from subjects at pre-dosing on the first study drug infusion day and 2 hours after the drug infusion on the third drug infusion day during the first and second treatment cycles. Peripheral blood mononuclear cells (PBMCs) were prepared and incubated overnight in medium alone or medium containing ALT-801, p53-positive A375 tumor cells or ALT-801+A375 tumor cells. Levels of activated immune effector cells were measured using ELISPOT for interferon-gamma (IFN-γ) production. […] These cells were not found in the blood during the treatment cycle (i.e. Dose 3 and Dose 7 samples), consistent with lymphocyte migration to the tumor site. […] Together, these findings indicate that ALT-801 treatment at the MTD level provided favorable pharmacokinetics and immunostimulatory activity necessary for antitumor responses.

[2] = tested on: human PBMCs and purified NK cells; assay: In vitro activation of human PBMCs and purified NK cells by ALT-801; assay type: cell-based; conditions: concentrations observed in patients; overnight incubation
[3] = tested on: human NSCLC A549-A2 tumor cells; assay: Adoptive transfer of preincubated NK cells in A549-A2 experimental metastasis model; assay type: in vivo, athymic nude mice; conditions: CTX 200 mg/kg ip days 14, 21; NK cells preincubated with the protein iv days 16, 22 (CTX group: no NK cells)
[4] = tested on: metastatic malignancies that express HLA-A2/p53 peptide complexes; assay: Phase I/IIa clinical study of ALT-801: tumor assessment (RECIST); assay type: in vivo, human
Experimental: FIG. 35 sets forth Table 2 depicting preliminary tumor assessment for evaluable subjects treated with 0.015, 0.04 or 0.08 mg/kg ALT-801. […] For SD (highlighted), change in target lesions compared to baseline is indicated at week 7 or 11 after the first dose.
ALT-801 is currently being evaluated in a multi-course dose-escalation Phase I/IIa clinical study in patients with metastatic malignancies that express HLA-A2/p53 peptide complexes, the antigenic target of ALT-801. The primary endpoints in this dose-escalation study are to evaluate the safety, determine the maximum-tolerated dose (MTD), and characterize the pharmacokinetic profile of ALT-801 administered to patients with progressive metastatic malignancies. Secondary endpoints include evaluation of ALT-801 immunogenicity and assessment of the patient's immune response and anti-tumor response. Each subject enrolled receives up to a total of 8 doses of the study drug in the following schedule: once daily as an intravenous bolus for the first 4 days (cycle 1), followed by a 10-day rest period of no study drug treatment (rest period) and then once daily as an intravenous bolus for an additional 4 days (cycle 2). The trial design includes a dose escalation phase of 3-6 subjects/cohort with starting dose of 0.015 mg/kg (equivalent to approximately 50,000 IL-2 IU/kg) and an expansion phase with 10 additional patients treated at the MTD level. At least 23 patients have been treated with at least one dose of ALT-801 at the 0.015 mg/kg (4 patients), 0.04 mg/kg (13 patients) and 0.08 mg/kg (6 patients).
The effects of ALT-801 on tumors was assessed based on RECIST criteria by comparing baseline (pre-dose) CT scans with those taken in follow-up visits at week 7 and 11.

With “ALT-801: recombinant humanized soluble single-chain TCR-cytokine fusion protein: human TCR β constant domain, murine TCR antigen-binding regions, human IL2; p53 (aa 264-272)/HLA-A2.1 specific” the “serum IFN-γ induction by dose level” value ([1]; 0.04 mg/kg or 0.08 mg/kg) was “equivalent levels of serum IFN-γ induction that were higher than those observed at the 0.015 mg/kg dose level”, the “serum IFN-γ concentrations” value ([1]; 4-8 hours after dosing, particularly following the fourth dose) was “increase in serum IFN-γ concentrations” and the “immune cells responsive to ALT-801+A375 tumor cells (ELISPOT)” value ([1]; Pre-dose Cycle-2 sample) was “increase in immune cells responsive to ALT-801+A375 tumor cells”. For the same substance, the “IFN-γ-positive cells in blood (ELISPOT)” value ([1]; during the 2-cycle course of treatment) was “little or no increase in IFN-γ-positive cells”, the “activation of human PBMCs and purified NK cells” value [2] was “able to fully activate human PBMCs and purified NK cells” and the Median survival [3] was 85.5 days. The “patients with stable disease status” value ([4]; 11 weeks after treatment) was “approximately 50%”, the tumor shrinkage ([4]; cohort 3 subjects with stable disease) was “up to 23%” and the “subjects with stable disease, cohort 3” value ([4]; six evaluated subjects) was “four (three with melanoma and one with renal cell carcinoma) of six evaluated subjects of cohort 3 showed stable disease”. For the same substance, the “subjects with stable disease, cohort 2” value ([4]; six subjects) was “three (prostate cancer, head and neck cancer and renal cell carcinoma) have achieved stable disease status” and the “change in target lesion LD compared to baseline” value ([4]; subject 02004 Metastatic Head and Neck, second course 0.04 mg/kg, over 9 month) was −3.3%.
